Earlier results, collected in patent US8784886B2, “Coating capsules with active pharmaceutical ingredients” (GlaxoSmithKline, LLC, priority 2006, dated 2014).

Conditions: gelatin capsules, stored and packaged under the prescribed conditions of temperature and humidity

CC1=C(/C=C/C(C)=C/C=C/C(C)=C/CO)C(C)(C)CCC1 [USP vitamin A, vitamin A]
time without significant loss of potency of the encapsulated contents: ≥ 3 years
